Results taken from patent US20150216870A1, “Combination of PI3K Inhibitor and C-Met Inhibitor” (Novartis AG, priority 2012, published 2015).
Entries after “also recorded” stand apart in the source; their conditions may differ.

Legend:
[1] = test system: NCI-H1993 human non-small cell lung carcinoma xenograft; assay: NCI-H1993 xenograft tumor growth inhibition and tumor growth delay; type: in vivo, athymic nude mice; details: c-Met inhibitor 17.7 mg/kg p.o. b.i.d. to end
Description: In this experiment, the NCI-H1993 human non-small cell lung carcinoma xenograft model is used to assess the anti-tumor efficacy of the PI3K inhibitor COMPOUND D and c-Met inhibitor 2-fluoro-N-methyl-4-[7-quinolin-6-yl-methyl)-imidazo[1,2-b][1,2,4]triazin-2yl]benzamide as single agents or in combination. NCI-H1993 tumor cells obtained from the American Type Culture Collection (ATCC) are derived from a lymph node metastasis of a patient having a stage 3A lung adenocarcinoma and a history of smoking.
Female athymic nude mice (Crl:NU (Ncr)-Foxn1^nu, Charles River) are 8 weeks old, and have a body weight (BW) range of 16.1-26.2 g, on D1 of the study. The animals are fed ad libitum water (reverse osmosis, 1 ppm CI) and NIH 31 Modified and Irradiated Lab Diet® consisting of 18.0% crude protein, 5.0% crude fat, and 5.0% crude fiber. The mice are housed on irradiated Enrich-O'cobs™ Laboratory Animal Bedding in static microisolators on a 12-hour light cycle at 20-22° C. (68-72° F.) and 40-60% humidity.
The NCI-H1993 tumor line is obtained from the American Type Culture Collection and maintained at DRS_NC in RPMI-1640 medium containing 100 unites/penicillin G sodium, 100 µg/mL streptomycin sulfate, 25 µg/mL gentamicin, 10% fetal bovine serum, and 2 mM glutamine. The tumor cells are cultured in tissue culture flasks in a humidified incubator at 37° C. in an atmosphere of 5% CO2 and 95% air.
The tumor cells used for implementation are harvested during log phase growth and resuspended in cold PBS containing 50% Matrigel™ (BD Biosciences). Each mouse is injected subcutaneously in the right flank with 1×10^7 cells (0.2 mL cell suspension). Tumors are calipered in two dimensions to monitor growth as their mean volume approached the desired 200-250 mm^3 range. Tumor size, in mm^3, was calculated from: Tumor Volume=(width^2×length)/2, where width and length (in mm) are measurements of the tumor. Tumor weight can be estimated with the assumption that 1 mg is equivalent to 1 mm^3 of tumor volume. Fourteen days after tumor cell implantation, on D1 of the study, mice with individual tumor volumes of 172-256 mm^3 are sorted into groups of ten mice, with group mean tumor volumes of 206-215 mm^3.
The c-Met inhibitor 2-fluoro-N-methyl-4-[7-quinolin-6-yl-methyl)-imidazo[1,2-b][1,2,4]triazin-2yl]benzamide (HCl salt, 84.98% free base) is stored at 4° C. and is added to a volume of deionized water equal to 1/2 of the final volume and sonicated until dissolved to obtain a uniform 2× suspension. An equal volume of 0.5% methylcellulose: 0.1% Tween® 80 is added to provide a 1.77 mg/mL solution with final vehicle concentrations of 0.25% methylcellulose and 0.05% Tween® 80 in deionized water (Vehicle 1). Fresh solutions are prepared once daily for the […]. dosing and stored at room temperature until the a.m. dosing.
COMPOUND D is suspended at 3.0 mg/mL in 0.5% methylcellulose in deionized water. The vehicle is added in portions equal to 1/3 of the final volume. The suspension is vortexed after each addition, and then finally probe sonicated on ice to prepare a homogeneous white suspension. A fresh suspension is prepared weekly, stored at 4° C., and re-suspended prior to dosing.
The c-MET inhibitor and the vehicle is each administered via oral gavage (p.o.) twice daily for the duration of the study (b.i.d. to end). COMPOUND D is administered via oral gavage (p.o.) once daily for the duration of the study (qd to end). In combination therapies, COMPOUND D is dosed within 30 minutes after the c-Met inhibitor. In all groups, the dosing volume of 10 mL/kg (0.2 mL/20 g mouse) is scaled to the weight of each animal as determined on the day of dosing, except on weekends when the previous BW is carried forward.
The groups of nude mice (n=10/group) are treated as follows. Group 1 receive Vehicle 1 and Vehicle 2 and serve as controls for the study. […] Group 3 receives 30 mg/kg COMPOUND D monotherapy once daily for the duration of the study (qd to end).

[2] = Toxicity (deaths) in U-87 MG xenograft study; type: in vivo
Description: Animals are weighed on Days 1-5, on each treatment day (except weekends), and twice weekly thereafter, until the end of the study. Group mean BW nadir determinations exclude measurements taken after more than 50% of the assessable mice in the group had exited the study, and also excluded any animal that was classified as an NTR death during the study. Acceptable toxicity for the maximum tolerated dose (MTD) is defined as a group mean BW loss of less than 15% during the test, and not more than one TR death among ten animals. Any animal with BW losses exceeding 15% for three consecutive measurements, or with a BW loss exceeding 20% for one measurement, are euthanized, and classified as a TR death unless it was the first death in the group. A death is classified as Non-Treatment Related (NTR) if there was no evidence that the death is related to treatment side effects and the death occurs more than 14 days after dosing ended. NTR deaths are categorized as NTRa (due to accident or error), NTRu (due to unknown causes), or NTRm (necropsy-confirmed tumor dissemination by invasion and/or metastasis). To conserve animals while providing maximum information, the first death in a group was classified as NTRu; such an NTR death was to be reclassified as TR if two subsequent TR deaths are recorded in the same group.

[3] = test system: U-87 MG; assay: CellTiter-Glo cell viability dose matrix in U-87 MG glioblastoma cells; type: cell-based, human; details: U87 MG (PTEN mutant, HGF expressing)
Description: The PI3K inhibitor COMPOUND C and the c-MET receptor tyrosine kinase inhibitor 2-fluoro-N-methyl-4-[7-quinolin-6-yl-methyl)-imidazo[1,2-b][1,2,4]triazin-2yl]benzamide are evaluated in combination in glioblastoma tumor models. COMPOUND C (10 mM) and 2-fluoro-N-methyl-4-[7-quinolin-6-yl-methyl)-imidazo[1,2-b][1,2,4]triazin-2yl]benzamide (10 mM) are dissolved in DMSO, and are stored in aliquots at −20° C.
Human Glioblastoma cell lines, U-87 MG (PTEN mutant and HGF expressing line), H4 (PTEN mutant and HGF expressing line), A172 (PTEN mutant line with low HGF expression level) and LN-229 (PTEN wildtype and HGF low) are purchased from American Type Cell Collection and are maintained in a humidified incubator at 37° C. in 5% CO2 in recommended media. All four cell lines express detected MET at the mRNA level.
The cells are passaged twice a week and the medium is changed every 2 to 3 days. […]
Cell viability is determined by measuring cellular ATP content using the CellTiter-Glo® (CTG) luminescent cell viability assay (Promega). […] An equal volume of the CTG reagents is added to each well at the end of the compound treatment and luminescence is recorded on an Envision plate reader (Perkin Elmer). Reduced and enhanced luminescent signal values (responses) are calculated relative to untreated (control) cells. […]

SMILES: CNC(=O)c1ccc(-c2cnc3ncc(Cc4ccc5ncccc5c4)n3n2)cc1F [c-Met inhibitor]
- % TGD [1]: 97%
- D71 survivors [1]: four
- T-C [1]: 24.2 days
- T/C or T/T0 ([1]; D20): 15%
- Median TTE ([1]; endpoint 600 mm3): 49.2 days
- overall survival (in words) ([1]; logrank vs control): significantly extends survival; also recorded: significant survival extension
- D20 tumor growth inhibition (in words) ([1]; vs control Group 1): does not achieve significant inhibition relative to control; also recorded: non-significant D20 tumor growth inhibition
- Deaths ([2]; c-Met inhibitor 17.7 mg/kg p.o. qd x21): (0)
- Deaths ([2]; c-Met inhibitor 35.3 mg/kg p.o. qd x21): (0)
- anti-proliferative activity (single agent) [3]: only moderate activities
